Here are results for 4 compounds from patent US11839698B2, “Drug composition and coating” (priority 2014, dated 2023).

Data set [1] in a line: Test Method D: stability to ethylene oxide sterilization (paclitaxel recovery by UPLC). The format is physicochemical. The settings on record: additive formulated with paclitaxel as solid coating.
Procedure: A sample of a composition of the invention or a coated device of the invention was placed in a breathable polyethylene pouch (e.g. a Tyvek pouch) and subjected to at least 12 hours preconditioning at 43° C. and 65% relative humidity followed by 12 hours exposure to 600 mg/L ethylene oxide at 52° F. and 25% relative humidity. The chamber was then aerated at 32° F. for at least 12 hours until ethylene oxide concentration was less than 0.25 ppm.
After sterilization, the paclitaxel content on the device or the paclitaxel content of the composition was assessed (through device extraction for coated medical devices i.e. immersion of the whole device in an extraction solvent) using UPLC quantification as described in the evaluation methods section. For each device or composition, the percentage drug recovery after sterilization was calculated by normalizing the extracted paclitaxel amount by the theoretical paclitaxel amount loaded on the device, or present in the composition pre-sterilization.
Approximately 30 mg of excipient was weighed into a 7 mL glass vial and 6 mL of 75/25 v/v acetone/water was added. A small stirrer bar was added to each vial and all samples were stirred overnight at room temperature to ensure full dissolution. […] Percent paclitaxel recovery was calculated by normalizing to either theoretical initial loading or pre-sterilized samples.
The conditions of data set [2]: in acetone, ethanol and aqueous mixtures thereof. An excerpt:
As discussed in further detail below, coatings of the invention can be prepared by pipetting a solution containing therapeutic agent and excipient onto the device to be coated. […] Thus, in one embodiment the organic additive is not thiamine-HCl.

A short description of data set [3]: Early experiments on stability of organic additive in solution. The format is physicochemical. An excerpt:
Thus, vanillin is not suitable as an organic additive for the present invention.

SMILES strings stand for the structures. Structures can show the parent of a compound that is named as a salt.

For `NC(=O)c1cccnc1` [niacinamide], in data set [1], the “effect of additive on paclitaxel under ethylene oxide sterilization” value was “nearly complete paclitaxel degradation”.
Same read-out and setting: in the case of `O=C([O-])c1ccccc1O.[Na+]` [sodium salicylate] it was “cause degradation of the paclitaxel”.
For the compound `Cc1ncc(C[n+]2csc(CCO)c2C)c(N)n1` [thiamine-HCl], the solubility of additive entry in data set [2] is “poor solubility”.
Regarding `COc1cc(C=O)ccc1O` [vanillin], in data set [3], the “stability of additive in solution” value is “easily degraded in solution”.
